Assay results: patent US12715781B2, “Water treatment and purification method” (priority 2019, dated 2026)

Experiments:
[1] = test system: S. aureus ATCC 25923; test: Agar well diffusion, zone of inhibition; assay type: cell-based, Staphylococcus aureus; settings: 8 mm wells, nanoparticles 100 μL (50 μg) per well, tetracycline 15 μg/wells, 24 hr at 37° C.
Procedure: (§1) For bacterial growth, a lawn of culture was prepared by spreading the […] of each test organism on nutrient agar plates. Plates were left standing for 10 minutes to let the culture get absorbed. Then 8 mm wells were punched into the nutrient agar plates for testing nanomaterial antimicrobial activity. Using a micropipette, 100 μL (50 μg) of the sample of nanoparticle suspension was poured onto each of five wells on all plates. After 24 hr incubation at 37° C.±2° C., the diameter of inhibition zone was measured.

[2] = test system: E. coli; test: Agar well diffusion, zone of inhibition; assay type: cell-based; settings: 8 mm wells, nanoparticles 100 μL (50 μg) per well, tetracycline 15 μg/wells, 24 hr at 37° C.
Procedure: as §1

CN(C)[C@@H]1C(O)=C(C(N)=O)C(=O)[C@@]2(O)C(O)=C3C(=O)c4c(O)cccc4[C@@](C)(O)[C@H]3C[C@@H]12 [Tetracycline, tetracycline]
Inhibitions zones diameters [1]: 18 ± 0.2 mm | Inhibitions zones diameters [2]: 20 ± 0.2 mm
